From PubChem BioAssay (NCI)
Where “and” joins values, the source holds several entries; their conditions need not be identical. Equal values may be shown once.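 A five-concentration, 48-hour dose response in 96-well plates underlies each endpoint, interpolated linearly between surrounding concentrations. GI50 = concentration required for 50% inhibition of growth. TGI: total growth inhibition.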

What was measured:
Experiment in all cases: growth of human tumour cells (NCI), 48 h
[1] = test system: HCT-15 colon
[2] = test system: SK-MEL-5 melanoma
[3] = test system: CAKI-1 renal
[4] = test system: NCI-H23 lung
[5] = test system: MCF7 breast
[6] = test system: OVCAR-3 ovarian
[7] = test system: LOX IMVI melanoma
[8] = test system: MOLT-4 leukemia
[9] = test system: UACC-257 melanoma
[10] = test system: U251 CNS

Structure (SMILES) | TGI [1] [µM] | TGI [2] [µM] | TGI [3] | TGI [4] [µM] | TGI [5] [µM] | TGI [6] [µM] | TGI [7] [µM] | TGI [8] [µM] | TGI [9] [µM] | TGI [10] [µM] | GI50 [1] [µM] | GI50 [4] [µM] | GI50 [7] [µM] | GI50 [8] [µM] | GI50 [10] [µM] | GI50 [5] [µM] | GI50 [6] [µM] | GI50 [2] [µM] | GI50 [3] [µM] | GI50 [9] [µM]
COc1ccc2c(c1)[nH]c1c(/C=C/c3ccccc3)nccc12 | 34.7 | 36.6 | 52 µM | 35.9 | 41.6 | 36.9 | 63.2 | > 100 | 31.1 | 38.9 |  |  |  |  |  |  |  |  |  | 
CCCCCCCCC/C=C/C=C/C(=O)NCC(=O)NC1C(O)C(O)C(Nc2ncnc3nc[nH]c23)OC1C(O)CO (stereo not given) |  | 0.12 | 0.0105 µM and 0.0747 µM |  |  | 0.0436 | 0.0396 | > 100 | 0.207 | 0.0217 | 2.05 | 0.0247 | 0.00735 | 0.372 | 0.00214 |  |  |  |  | 
O=C(c1cccs1)N(C(=S)OC12CC3CC(CC(C3)C1)C2)c1ccccc1 | > 100 | 55.8 | > 100 µM | > 100 | > 100 | > 100 | 92.9 | > 100 | > 100 | > 100 |  |  |  |  |  |  |  |  |  | 
COc1cccc2c1Cc1cc(-c3ccccc3)[n+](C)n1-2 | > 100 | 21.7 | > 100 µM | 32.4 | 5.53 | > 100 | 29.3 | > 100 | 14.4 | > 100 |  |  |  |  |  |  |  |  |  | 
NCCSC(c1ccccc1)c1ccccc1 | > 100 | 31.1 | 67.2 µM | > 100 | 38 | 40.6 | 31.2 | 42.6 | 30 | 33.3 |  |  |  |  |  |  |  |  |  | 
Nc1nc(SCCc2ccccc2)nc2nc3c(c(-c4ccccc4)c12)CCCC3 | > 100 |  | > 100 µM | > 100 | > 100 | > 100 | > 100 | > 100 | > 100 | > 100 |  |  |  |  |  |  |  |  |  | 
Clc1cc2c(cc1Cl)CC(NCCN1CCCC1)CC2 (stereo not given) | 26.5 | 14.7 | 30.2 µM | 30.9 | 31 | 32 | 27.2 | 60 | 21.3 | 31.1 |  |  |  |  |  |  |  |  |  | 
NC(=O)c1c(NC(=O)c2ccccn2)sc2c1CCC(=O)C2 | > 100 |  |  |  | > 100 | 45.7 | > 100 | > 100 |  | > 100 | 2.63 |  | 3.72 | > 100 | 2.14 | 2.37 | 3.25 |  |  | 
CCOC(=O)C(NC(=O)c1ccco1)(Nc1nc2ccc(OCC)cc2s1)C(F)(F)F (stereo not given) | > 100 | 47.8 | 45.8 µM | > 100 | 78.8 | > 100 |  | > 100 | 76.1 | > 100 |  |  |  |  |  |  |  |  |  | 
COc1ccc(C(=O)/C=C/c2cccc([N+](=O)[O-])c2)c(OC)c1 | 2.61 | > 50 | > 50 µM | > 50 | > 50 | > 50 | 1.94 | 3.88 | > 50 | 1.72 | 0.916 | 2.61 | 0.895 | 1.17 | 0.881 | 1.37 | 1.72 | 2.37 | 1.98 | > 50
O=C(O)C1C2CCC(O2)C1C(=O)Nc1cccc2cccnc12 (stereo not given) | > 100 |  | > 100 µM | > 100 | > 100 | > 100 | > 100 |  | > 100 | > 100 |  |  |  |  |  |  |  |  |  | 
CC(=O)C1=C(C)N(c2ccc(C)cc2)C2(O)C=CC(=O)C3C(=O)N(c4ccccc4)C(=O)C132 (stereo not given) | > 100 | 34 | 45.4 µM | 46.1 | 53.7 | > 100 |  |  | 36.5 | 65.6 |  |  |  |  |  |  |  |  |  | 
CCC1CN(C(=O)c2ccccc2)C(Cc2c[nH]c3ccccc23)C(=O)C1CC(=O)OC (stereo not given) | > 100 | > 100 | > 100 µM | > 100 | > 100 |  | > 100 | > 100 | > 100 | > 100 |  |  |  |  |  |  |  |  |  | 
COc1nc(C#CC2(O)CCCCC2)nc(OC)n1 | 15.6 | 20.2 | 15.9 µM | 27.1 | 19.4 | 20.4 | 11.7 | > 100 | 31.7 | 26.4 |  |  |  |  |  |  |  |  |  | 
CCn1c(-c2ccc(N=NNc3ccc(-c4n[nH]c(=S)n4CC)cc3)cc2)n[nH]c1=S | > 100 | 3.48 |  | 6.26 | 29.2 | 5.61 | > 100 | 6.28 | > 100 |  |  |  |  |  |  |  |  |  |  | 
O=c1[nH]nc(NNc2ccccc2)c2nnn(C3CCCCC3)c12 | > 100 | > 100 | > 100 µM | > 100 | > 100 | > 100 | > 100 | > 100 | > 100 | > 100 |  |  |  |  |  |  |  |  |  | 
